From article PMC11459966, “Oral pharmacokinetics and efficacy of oral phospholipid remdesivir nucleoside prodrugs against SARS-CoV-2 in mice” (Antimicrobial Agents and Chemotherapy, 2024) come the findings set out here.

Read-outs that look alike come from different tables or passages of the source. Marks after values point to notes of the source that are not given here.

In assay [1] the test system is SARS-CoV-2 B.1.351 (Beta variant). It counts as in vivo, BALB/c mice. The note with it: for level of infectious SARS-CoV-2 in the lung at 2 dpi compared to vehicle: V2043, V2053, V2067 at 27 or 80 mg/kg; for lung infectious units vs limit of detection at 4 dpi: V2043 and V2067 27 and 80 mg/kg, V2053 80 mg/kg once daily, EIDD-2801 100 mg/kg BID, GS-5245 30 mg/kg BID; for Daily dose required to reach below the limit of detection on day 4 post-infection / Molar daily dose required to reach below the limit of detection on day 4 post-infection / reduction of lung infectious units compared to vehicle: mouse, in vivo; for reduction of lung infectious units compared to vehicle: po, 80 mg/kg; for lung titers reduced to below the limit of detection at 4 dpi: GS-5245 10 mg/kg BID, remdesivir 25 mg/kg BID.

Assay [2] shares this test system. Format: in vivo, BALB/c mice. The note with it: for reduction of lung titers: mouse, in vivo, po, 80 mg/kg; for effect on lung titers at day 4 post-infection / lung titers vs limit of detection at day 4 post-infection / weight loss at 2 dpi compared to vehicle-treated mice / lung histopathology scores at 4 dpi / effect on lung titers at day 2 / effect on lung titers at 4 dpi (significant reduction): prophylaxis; for effect on lung titers at day 4 post-infection: 27 mg/kg or 80 mg/kg once daily PO; for antiviral effects on lung titers at 2 dpi: prophylaxis, 8, 27 or 80 mg/kg once daily PO; for lung titers vs limit of detection at day 4 post-infection: once daily PO, for V2067 even at 8 mg/kg; for weight loss at 2 dpi compared to vehicle-treated mice: V2043 80 mg/kg, V2053 27 and 80 mg/kg, V2067 all doses; for weight loss at 2 dpi compared to vehicle-treated mice / effect on lung titers at 4 dpi (significant reduction): obeldesivir 10 or 30 mg/kg BID; for lung histopathology scores at 4 dpi: GS-5245 30 mg/kg BID, V2053 8 mg/kg, H&E; for effect on lung titers at day 2: EIDD-2801 100 mg/kg BID, GS-5245 10 or 30 mg/kg BID; for effect on lung titers at day 2 / effect on lung titers at 4 dpi (significant reduction): PO; for effect on lung titers at 4 dpi (significant reduction): comparators: EIDD-2801 100 mg/kg BID, remdesivir 25 mg/kg BID.

Where [3] appears, read: daily dose derived from prophylaxis experiment (Fig. 4).

`CCCCCCCCCCCCCCCCCCOC[C@H](COP(=O)(O)OC[C@H]1O[C@@](C#N)(c2ccc3c(N)ncnn23)[C@H](O)[C@@H]1O)OCc1ccccc1` [Compound V2043, 1-O-octadecyl-2-O-benzyl-sn-glyceryl-P-RVn]: in assay [1], the “level of infectious SARS-CoV-2 in the lung at 2 dpi compared to vehicle” value (“level … compared to vehicle” below) is “significantly reduced”, the “lung infectious units vs limit of detection at 4 dpi” value (shortened to “lung infectious units vs limit”) was “below the limit of detection in all animals”, the “Daily dose required to reach below the limit of detection on day 4 post-infection” value is on record as 27 mg/kg and the “Molar daily dose required to reach below the limit of detection on day 4 post-infection” value was determined as 34.3 µmol/kg. Also, the “reduction of lung infectious units compared to vehicle” value (from here on “reduction of lung infectious units”) in assay [1] was 3.1 log10. Besides, in assay [2], the “reduction of lung titers” value was determined as 2.29 Log10, the “effect on lung titers at day 4 post-infection” value is on record as “significantly reduced lung titers”, the “antiviral effects on lung titers at 2 dpi” value (shortened to “antiviral effects”) is on record as “dose-dependent antiviral effects” and the “lung titers vs limit of detection at day 4 post-infection” value was “below the limit of detection in all animals”. Moreover, the “weight loss at 2 dpi compared to vehicle-treated mice” value in assay [2] was “lost less weight”.

Consider `CCCCCCCCC=CCCCCCCCCOCC(COP(=O)(O)OCC1OC(C#N)(c2ccc3c(N)ncnn23)C(O)C1O)OCc1ccc(OC)c(F)c1` (stereo not drawn) [Compound V2053], for which, in assay [1], the “level … compared to vehicle” value is “significantly reduced”, the “lung infectious units vs limit” value is reported as “below the limit of detection in all animals” and the “reduction of lung infectious units” value is 3.0 log10. Besides, in assay [2], the “effect on lung titers at day 4 post-infection” value is “significantly reduced lung titers”, the “antiviral effects” value was “dose-dependent antiviral effects”, the “lung histopathology scores at 4 dpi” value was “small but significant reductions” and the “weight loss at 2 dpi compared to vehicle-treated mice” value is “lost less weight”.

Regarding `CCCCCCCCCCCCCCCCCCOCC(COP(=O)(O)OC[C@H]1O[C@@](C#N)(c2ccc3c(N)ncnn23)[C@H](O)[C@@H]1O)OCc1ccc(C#N)cc1` (stereo partly drawn) [Compound V2067], in assay [1], the “level … compared to vehicle” value is “significantly reduced”, the “lung infectious units vs limit” value is reported as “below the limit of detection in all animals”, the “Daily dose required to reach below the limit of detection on day 4 post-infection” value was determined as 27 mg/kg and the “Molar daily dose required to reach below the limit of detection on day 4 post-infection” value amounted to 33.2 µmol/kg. Also, the “reduction of lung infectious units” value in assay [1] was 3.2 log10. In assay [1] (therapeutic model), the “Fold ∆ vs MPV (molar daily dose)” value was 18.2× and the “Fold ∆ vs OBDV (molar daily dose)” value was found to be 5.0×. Also, in assay [2] (setting [3]), the “Daily dose required to reach below the limit of detection on day 4 post-infection” value is 8^a mg/kg, the “Fold ∆ vs MPV (molar daily dose)” value was 61.9×, the “Fold ∆ vs OBDV (molar daily dose)” value came out at 16.9× and the “Molar daily dose required to reach below the limit of detection on day 4 post-infection” value came to 9.8 µmol/kg. In assay [2], the “reduction of lung titers” value is on record as 1.83 Log10, the “effect on lung titers at day 4 post-infection” value was “significantly reduced lung titers”, the “antiviral effects” value is reported as “dose-dependent antiviral effects” and the “lung titers vs limit of detection at day 4 post-infection” value is recorded as “below the limit of detection in all animals”. Further, in assay [2], the “weight loss at 2 dpi compared to vehicle-treated mice” value was “lost less weight”.

As to `CC(C)C(=O)OC[C@H]1O[C@@H](n2ccc(NO)nc2=O)[C@H](O)[C@@H]1O` [EIDD-2801, reference compound], in assay [1], the “lung infectious units vs limit” value is given as “reduced lung titers to below the limit of detection”, the “Daily dose required to reach below the limit of detection on day 4 post-infection” value amounted to 200 mg/kg and the “Molar daily dose required to reach below the limit of detection on day 4 post-infection” value was 607 µmol/kg. In addition, in assay [2], the “effect on lung titers at day 2” value was “significantly reduced lung titers” and the “effect on lung titers at 4 dpi (significant reduction)” value (shortened to “effect … (significant reduction)”) is given as “significantly reduced lung titers”.

On to `CC(C)C(=O)OC[C@H]1O[C@@](C#N)(c2ccc3c(N)ncnn23)[C@H](O)[C@@H]1O` [Obeldesivir GS-5245, reference compound], for which, in assay [1], the “lung titers reduced to below the limit of detection at 4 dpi” value is “did not”, the “lung infectious units vs limit” value is “reduced lung titers to below the limit of detection”, the “Daily dose required to reach below the limit of detection on day 4 post-infection” value is on record as 60 mg/kg and the “Molar daily dose required to reach below the limit of detection on day 4 post-infection” value is 166 µmol/kg. In addition, in assay [2], the “effect on lung titers at day 2” value is on record as “significantly reduced lung titers”, the “effect … (significant reduction)” value is “did not”, the “lung histopathology scores at 4 dpi” value is on record as “small but significant reductions” and the “weight loss at 2 dpi compared to vehicle-treated mice” value was “lost less weight”.

For the compound `CCC(CC)COC(=O)[C@H](C)N[P@](=O)(OC[C@H]1O[C@@](C#N)(c2ccc3c(N)ncnn23)[C@H](O)[C@@H]1O)Oc1ccccc1` [remdesivir], in assay [1], the “lung titers reduced to below the limit of detection at 4 dpi” value is on record as “did not”. In addition, the “effect … (significant reduction)” value in assay [2] is reported as “did not”.
